Values after ≈ are worked out from the molar mass of the structure shown.
How the values were obtained:
[1] = tested on: Actinomyces naeslundii; assay: Antimicrobial activity determination (MIC); format: cell-based; details: BHI broth, aerobic, 37 degrees C, read-out: Minimimum Inhibitory Concentrations
Method: (§1) The antimicrobial activity of the targeted agents was assessed by determining the minimum inhibitory concentration (MIC). Pure cultures of various strains of oral bacterial species as indicated in Table 3 were combined with serial dilutions of the targeted agents in beef heart infusion broth (BHI); starting bacterial concentrations were approximately 1.0 x 10E6 colony forming units (CFU) per ml. The mixtures were incubated aerobically at 37 degrees C and the optical density (540 nm, path length 1cm) of the cultures was measured at 0.0, 24.0 and 48.0 hr using Bausch and Lomb Spec 20 variable wavelength spectrophotometer.

[2] = tested on: Candida albicans; assay: Antimicrobial activity determination (MIC); format: cell-based; details: BHI broth, aerobic, 37 degrees C, read-out: Minimimum Inhibitory Concentrations
Method: as §1

[3] = tested on: Neisseria subflava; assay: Antimicrobial activity determination (MIC); format: cell-based; details: BHI broth, aerobic, 37 degrees C, read-out: Minimimum Inhibitory Concentrations
Method: as §1

[4] = tested on: Porphyromonas gingivalis; assay: Antimicrobial activity determination (MIC); format: cell-based; details: BHI broth, aerobic, 37 degrees C, read-out: Minimimum Inhibitory Concentrations
Method: as §1

[5] = tested on: Prevotella intermedius; assay: Antimicrobial activity determination (MIC); format: cell-based; details: Prevotella intermedius; BHI broth, aerobic, 37 degrees C; read-out: Minimimum Inhibitory Concentrations
Method: as §1

[6] = tested on: Streptococcus sanguis; assay: Antimicrobial activity determination (MIC); format: cell-based; details: Streptococcus, Streptococcus sanguis; BHI broth, aerobic, 37 degrees C; read-out: Minimimum Inhibitory Concentrations
Method: as §1

[7] = tested on: Streptococcus sobrinus; assay: Antimicrobial activity determination (MIC); format: cell-based; details: BHI broth, aerobic, 37 degrees C, read-out: Minimimum Inhibitory Concentrations
Method: as §1

[8] = tested on: Veillonella dispar; assay: Antimicrobial activity determination (MIC); format: cell-based; details: BHI broth, aerobic, 37 degrees C, read-out: Minimimum Inhibitory Concentrations
Method: as §1

[9] = Krafft point of a 1% dispersion in water; format: physicochemical; details: 1% dispersion of the surfactant in water
Method: The temperature at and above which surfactants begin to form micelles instead of precipitates is referred to as Krafft point (Tk) and at this temperature the solubility of a surfactant becomes equal to its CMC.
Krafft point was measured by preparing a 1% dispersion of the surfactant in water. If the surfactant was soluble at room temperature, the solution was cooled to 0°C. […] If it precipitated out, the solution was slowly warmed with stirring in a water bath. The temperature at which the precipitate dissolved was determined to be the Krafft point.
If the Krafft point was above room temperature, the solution was first heated rapidly to dissolve all the surfactant. It was then cooled until precipitation occurred, and was then slowly warmed to determine the Krafft point described above.

[10] = Foam height, Ross-Miles method; format: physicochemical; details: 45°C, water with 120 ppm hardness
Method: Since most of the foaming data on surfactants is typically obtained by the Ross-Miles method (Ross, J. and Miles, G.D., am. Soc. for Testing Material Method D1173-53 Philadelphia, PA. (1953); Oil & Soap (1958) 62:1260) the foaming ability of these surfactants was also acquired using this method.
In the Ross-Miles method, 200 mL of a solution of surfactant contained in a pipette of specified dimensions with a 2.9-mm-i.d. orifice is allowed to fall 90 cm onto 50 mL of the same solution contained in a cylindrical vessel maintained at a given temperature (often 60°C) by means of a water jacket. The height of the foam produced in the cylindrical vessel is read immediately after all the solution has run out of the pipette (initial foam height) and then again after a given amount of time (generally, 5 min).
Using this method, the foam production (measured initially) and foam stability (the height after 10 minutes) are reported. […] The foam height is represented in millimeters (mm).

MIC [1]: 60 µg/mL (≈ 114 µM) | MIC [2]: 125 µg/mL (≈ 238 µM) | MIC [3]: 250 µg/mL (≈ 476 µM) | MIC [4]: 30 µg/mL (≈ 57.1 µM) | MIC [5]: 250 µg/mL (≈ 476 µM) | MIC [6]: 125 µg/mL (≈ 238 µM) | MIC [7]: 125 µg/mL (≈ 238 µM) | MIC [8]: 60 µg/mL (≈ 114 µM) | Krafft Point [9]: 38 °C | Initial Height ([10]; foam production, measured initially): 160 mm | After 10 Minutes ([10]; foam stability, height after 10 minutes): 6 mm
SMILES: CCCCCCCCCCCCNC(=O)[C@H](O)[C@@H](O)[C@H](O[C@@H]1O[C@H](CO)[C@H](O)[C@H](O)[C@H]1O)[C@H](O)CO [Dodecyl lactobionamide, N-dodecyl lactobionamide]

Reference: patent EP0551675A1, “Oral hygiene compositions containing antiplaque agents” (UNILEVER N.V., priority 1991, dated 1993)
